Values joined by “and” are separate entries in the source; they are usually repeats but may differ in a detail not shown here. Equal entries are not always repeated. Where two headings read alike, the source gives them in different places.
Experiments:
BBOX = system: BBOX; design: method as in PMID 25030770, PMID 24317009; settings: BBOX (0.05 μM); 1H NMR turnover assay; cited from earlier work
PHD2 [1] = settings: PHD2 (4 μM), cited from earlier work; for k cat: O2
full-length His6-JMJD6 [2] = biological target: T1, full-length His6-JMJD6 (Homo sapiens, UniProt Q6NYC1); test: SPE-MS kinetics of JMJD6 for O2; type: biochemical
T1 construct: An enzyme mixture (10 μL) containing full-length His6-JMJD6 (5 μM; final concentration: 0.05 μM); made in house; host or cells: Escherichia coli BL21 (DE3), pET-28a(+) plasmid
Description: (§1) Recombinant human JMJD6 (full length with a N-terminal His6-tag) was produced in Escherichia coli BL21 (DE3) cells using a pET-28a(+) plasmid and purified by standard Ni(II)-affinity size-exclusion chromatography, as previously reported.[40] […] Purified JMJD6 was stored at −78 °C; fresh aliquots were used for all JMJD6 assays.
Assays to determine the kinetic parameters of JMJD6 for O2 were performed in 2 mL gas-tight glass vials (Sigma-Aldrich) in independent triplicates. 50 mM Tris buffer (pH 7.5; 0.95 mL) was incubated in a 2 mL gas-tight glass vial at 37 °C for 30 min with a fixed O2 concentration (in N2; specified in Fig S9, ESI ^†), adjusted using a mass flow controller. […] The JMJD6-catalysed reaction was performed at 37 °C at a fixed O2 concentration and was stopped after the reaction time specified (Fig. S9, ESI ^†) by the addition of 20%v/v aqueous formic acid (100 μL) and analysed by SPE-MS. The %-concentration of O2 in N2, adjusted with a mass flow controller, was converted into an O2 concentration [μM] by calibration using a standard (i.e., y[μM] = 9.026·x[%]).[100] Data were analysed by SPE-MS as described above to calculate apparent JMJD6 kinetic parameters for O2.

KDM4A [3] = settings: KDM4A versus JMJD6
[4] = system: type I human collagen prolyl 4-hydroxylase (CP4H-I); settings: (Pro-Pro-Gly)10 as substrate, [14C]CO2 release; cited from earlier work
KDM4A [5] = settings: KDM4A (1 μM), H3_1–15K9me3 as substrate; cited from earlier work
PHD2 [6] = settings: PHD2 versus JMJD6
AspH [7] = settings: AspH versus JMJD6
[8] = system: phytanoyl-CoA dioxygenase (PHYH); settings: PHYH (50 μM), isovaleryl-CoA as substrate, oxygen consumption assay, cited from earlier work
KDM4E = KDM4E (2.1 μM), H3_1–15K9me3 as substrate, oxygen consumption assay, cited from earlier work
FIH = FIH (5 μM), HIF-1α789–822 as substrate, cited from earlier work
KDM4C = KDM4C (3 μM), H3_1–15K9me3 as substrate, oxygen consumption assay, cited from earlier work
AspH [9] = settings: AspH (0.1 μM), hFX-CP101–119 as substrate, cited from earlier work
NO66_183–641 = system: NO66_183–641; design: method as in PMID 34843649; settings: NO66_183–641 (0.3 μM), RPL8_205–224 as substrate; SPE-MS; 2OG or Fe(II); cited from earlier work
PHD2 [10] = system: PHD2; design: method as in PMID 18952043; settings: PHD2 (1.0 nM), HIF-1α-derived biotin-DLEMLAPYIPMDDDFQL as substrate; FRET assay; 2OG or Fe(II); cited from earlier work
AspH315–758 = system: AspH315–758; design: method as in PMID 32107312; settings: AspH315–758 (0.1 μM), hFX-CP101–119 as substrate; SPE-MS; 2OG or Fe(II); cited from earlier work
full-length His6-JMJD6 [11] = biological target: T1, full-length His6-JMJD6; test: SPE-MS kinetics of JMJD6-catalysed lysyl hydroxylation (2OG, Fe(II), LAA, BRD-derived peptides); type: biochemical; settings: 2OG or Fe(II) varied, BRD4_511–550 (2 μM) as substrate, 0.05 μM full-length His6-JMJD6, ambient temperature
Description: as §1
Peptides were used as 10 mM stock solutions in DMSO (Sigma-Aldrich; BioUltra grade).
Assay samples were aspirated under vacuum for 0.4 s, then loaded onto a C4 solid phase extraction (SPE) cartridge. After loading, the C4 SPE cartridge was washed with 0.1%v/v aqueous formic acid to remove non-volatile buffer salts (5 s, 1.5 mL min^−1). The peptide was eluted from the SPE cartridge with 0.1%v/v aqueous formic acid in 75/25v/v acetonitrile/water into the mass spectrometer (5 s, 1.6 mL min^−1) and the SPE cartridge re-equilibrated with 0.1%v/v aqueous formic acid (1 s, 1.25 mL min^−1).
Peaks corresponding to the m/z +5 charge states of the BRD-derived substrate peptide and the hydroxylated product peptides were extracted from the ion chromatogram and integrated using RapidFire Integrator 4.3.0 (Agilent). Peak area data were exported into Microsoft Excel and used to calculate the relative abundance of the mono-hydroxylated product peptide using the following equation: […]
The concentration of the mono-hydroxylated product peptide was calculated by multiplying the %-fraction of the mono-hydroxylated product peptide by the initial concentration of the substrate peptide employed in the assay. Initial reaction velocities were then calculated and fitted to a Michaelis–Menten plot using nonlinear regression (GraphPad Prism 5).

JMJD5 = system: JMJD5; design: method as in PMID 37292060; settings: SPE-MS, cited from earlier work
[12] = LAA 100 μM, 50 mM Tris pH 7.5, ~20 min, SPE-MS, mean ± SD n = 3

C[N+](C)(C)CCCC(=O)[O-] [γ-butyrobetaine]
K m (substrate) (BBOX): 4.2 µM
k cat (substrate) (BBOX): 0.83 s⁻¹

O=O [O2, dioxygen]
k cat (PHD2 [1]; HIF-1α395–413 as substrate): 0.028 ± 0.001 s⁻¹
k cat (PHD2 [1]; HIF-1α556–574 as substrate): 0.06 ± 0.01 s⁻¹
K m for O2 (PHD2 [1]; HIF-1α395–413 as substrate): >450 µM
K m for O2 (PHD2 [1]; HIF-1α556–574 as substrate): 460 ± 30 µM
K^app m (O2) of JMJD6: fold greater than CP4H-I (full-length His6-JMJD6 [2]; JMJD6/BRD4_511–550 versus CP4H-I (ref 26)): ~2 fold
K^app m (O2) of JMJD6: fold greater than KDM6B (full-length His6-JMJD6 [2]; JMJD6/BRD4_511–550 versus KDM6B (ref 96)): ~4 fold
apparent Michaelis constant K^app m for O2 (full-length His6-JMJD6 [2]; O2 varied, BRD4_511–550 (2 μM) as substrate, 0.05 μM full-length His6-JMJD6, 50 mM Tris pH 7.5, 37 °C, quenched after 60 or 90 s, SPE-MS, mean ± SD n = 3): 69.8 ± 11.4 µM and 74 ± 14 µM
apparent turnover number k^app cat (full-length His6-JMJD6 [2]; O2 varied, BRD4_511–550 (2 μM) as substrate, 0.05 μM full-length His6-JMJD6, 50 mM Tris pH 7.5, 37 °C, quenched after 60 or 90 s, mean ± SD n = 3): 0.12 ± 0.01 s⁻¹
specificity constant kcat/Km (full-length His6-JMJD6 [2]; O2 varied, BRD4_511–550 (2 μM) as substrate, 0.05 μM full-length His6-JMJD6, pH 7.5, 37 °C, n = 3): 1700 ± 400 M⁻¹ s⁻¹
K^app m (O2): fold greater than that of JMJD6 (KDM4A [3]): ~2 fold
K m for O2 [4]: ~40 µM
K m for O2 (KDM4A [5]): 173 ± 23 µM
K^app m (O2): fold greater than that of JMJD6 (PHD2 [6]): ~6 fold
K^app m (O2): fold greater than that of JMJD6 (AspH [7]): ~6 fold
k cat ([8]; O2): 0.016 s⁻¹
K m for O2 [8]: 93 ± 43 µM
K m for O2 (KDM4E): 197 ± 16 µM
k cat (KDM4E; O2): 0.067 ± 0.001 s⁻¹
K m for O2 (FIH): 110 ± 30 µM
k cat (FIH; O2): 0.56 ± 0.04 s⁻¹
K m for O2 (KDM4C): 158 ± 13 µM
k cat (KDM4C; O2): 0.043 ± 0.001 s⁻¹
K m for O2 (AspH [9]): 426 ± 73 µM
k cat (AspH [9]; O2): 0.23 ± 0.04 s⁻¹

ammonium iron(II) sulfate hexahydrate [Fe(II)]
K^app m (NO66_183–641): 0.014 ± 0.001 µM
K^app m (PHD2 [10]): 0.89 ± 0.07 µM
K^app m (AspH315–758): 1.42 ± 0.16 µM
k cat/Km (AspH315–758): 130000 ± 30000 M⁻¹ s⁻¹
k^app cat (AspH315–758): 0.19 ± 0.03 s⁻¹
apparent Michaelis constant K^app m (full-length His6-JMJD6 [11]; [12]): 0.19 ± 0.02 µM
apparent maximum velocity v^app max (full-length His6-JMJD6 [11]; [12]): 3.6 ± 0.1 nM/s
apparent turnover number k^app cat (full-length His6-JMJD6 [11]; pH 7.5, calculated from v^app max assuming active JMJD6 = total enzyme, n = 3): 0.072 ± 0.002 s⁻¹
specificity constant kcat/Km (full-length His6-JMJD6 [11]; pH 7.5, n = 3): 380000 ± 50000 M⁻¹ s⁻¹
k cat/Km (JMJD5; RSP6_128–148 as substrate, 2OG or Fe(II)): 38500 ± 6200 M⁻¹ s⁻¹

RSP6_128–148: JMJD5 substrate
k cat/Km (substrate) (JMJD5): 11500 ± 6300 M⁻¹ s⁻¹

From PMC11878239, “Biochemical investigations using mass spectrometry to monitor JMJD6-catalysed hydroxylation of multi-lysine containing bromodomain-derived substrates” (RSC Chemical Biology, 2025)
